Four compounds from patent publication US7834174B2, “Per-6-guanidino-, alkylamino-cyclodextrins, methods of their synthesis and their use for the compaction of DNA and intercellular delivery” (priority 2004, dated 2010) can be followed below.

Counter-ions that a name gives are not always drawn.

Experiment [1] has as its system 5 kbp DNA. The experiment is described as follows: Atomic force microscopy (AFM, tapping mode) of DNA incubated with compound. The settings on record: 5 kbp DNA incubated with compound. The text has this:
The DNA-bguan interaction was confirmed with UV absorption spectra. The absorption maximum and the shape of the absorbance curve of DNA changed appreciably in the presence of 1 equivalent bguan, indicating a distinct change of its structure in buffer solution. In addition, when a 5 kbp DNA was examined under the atomic force microscope (AFM) in the tapping mode, nematoid (long warm-like) formations of up to 1 μm were observed. […] This actually proves that DNA compacts not in big aggregates but in nanoparticles of size suitable to cross a cell membrane.

Experiment [2] relates to ultrapure calf thymus DNA 13 kb. The experiment is described as follows: DNA compaction: electrophoresis in agarose gel with ethidium bromide as stain. The format is binding. The conditions noted are these: control substances, wells B-H and b (10 λ to 1 λ diluted 1:10).
Experiment [3] has as its system HeLa cells. In words: Cell penetration of FITC-labeled compounds by fluorescence microscopy. It is filed as cell-based, human. The conditions noted are these: 100 or 200 μM, 1 h incubation at 37° C.

Consider `NCCNCC1OC2OC3C(CNCCN)OC(OC4C(CNCCN)OC(OC5C(CNCCN)OC(OC6C(CNCCN)OC(OC7C(CNCCN)OC(OC8C(CNCCN)OC(OC1C(O)C2O)C(O)C8O)C(O)C7O)C(O)C6O)C(O)C5O)C(O)C4O)C(O)C3O` (stereo not drawn) [bpen, Heptakis(6-deoxy-6-aminoethylamino)-β-cyclodextrin], for which, in experiment [1], the “elongated (nematoid) DNA forms under AFM” value is on record as “complete absence of the elongated forms”. In addition, the “diameter of round DNA nanoparticles” value in experiment [1] (AFM) is about 40 nm. `N=C(N)N` [guanidine hydrochloride]: the “interaction with DNA under the electrophoresis conditions” value in experiment [2] was “do not display any kind of interaction with DNA”. Same read-out and setting: then `OC[C@H]1O[C@@H]2O[C@H]3[C@H](O)[C@@H](O)[C@@H](O[C@H]4[C@H](O)[C@@H](O)[C@@H](O[C@H]5[C@H](O)[C@@H](O)[C@@H](O[C@H]6[C@H](O)[C@@H](O)[C@@H](O[C@H]7[C@H](O)[C@@H](O)[C@@H](O[C@H]8[C@H](O)[C@@H](O)[C@@H](O[C@H]1[C@H](O)[C@H]2O)O[C@@H]8CO)O[C@@H]7CO)O[C@@H]6CO)O[C@@H]5CO)O[C@@H]4CO)O[C@@H]3CO` [β-cyclodextrin], with “do not display any kind of interaction with DNA”. Regarding “fluorescein isothiocyanate [treated FITC]”, the “fluorescence inside the cytoplasm” value in experiment [3] was “did not show any fluorescence”.
